Data on 14 compounds can be found in patent US8796466B2, “Hepatitis C virus inhibitors” (Bristol-Myers Squibb Company, priority 2009, dated 2014).

In general, EC50 refers to the concentration at which the effect is half-maximal.

The first assay deals with HCV 1b genotype. The assay can be described thus: HCV Replicon assay (HCV 1b genotype). The format is cell-based, Hepatitis C virus. The following applies: Hepatitis C virus; HCV 1b genotype replicon; Effective 50% inhibitory concentration; read-out: 1b EC50. Summed up:
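HCV-neo replicon cells, wild-type plus lines carrying NS5A-region mutations, were exposed to compound; luciferase-reporter replicon variants were also used.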
Take `COC(=O)N[C@H](C(=O)N1C[C@@H](C)C[C@H]1c1ncc(-c2ccc(C#Cc3ccc(-c4cnc([C@@H]5C[C@H](C)CN5C(=O)[C@@H](NC(=O)OC)C5CCOCC5)[nH]4)cc3)cc2)[nH]1)C1CCOCC1` [Example M12.3, dimethyl (1,2-ethynediylbis(4,1-phenylene-1H-imidazole-4,2-diyl((2S,4S)-4-methyl-2,1-pyrrolidinediyl)((1S)-2-oxo-1-(tetrahydro-2H-pyran-4-yl)-2,1-ethanediyl)))biscarbamate]: the EC50 was 0.014 nM.
As for `CN(C)[C@@H](C(=O)N1CCC[C@H]1c1ncc(-c2ccc(Oc3cccc(-c4cnc([C@@H]5CCCN5C(=O)[C@@H](c5ccccc5)N(C)C)[nH]4)c3)cc2)[nH]1)c1ccccc1` [OL-4, (1R)-2-((2S)-2-(4-(3-(4-(2-((2S)-1-((2R)-2-(dimethylamino)-2-phenylacetyl)-2-pyrrolidinyl)-1H-imidazol-4-yl)phenoxy)phenyl)-1H-imidazol-2-yl)-1-pyrrolidinyl)-N,N-dimethyl-2-oxo-1-phenylethanamine], the EC50 was 0.07 nM.

The same assay, now with this note: Hepatitis C virus; HCV 1b genotype replicon; class symbol; read-out: Range (EC50 values against HCV 1b).
`COC(=O)N[C@H](C(=O)N1CC(F)(F)C[C@H]1c1ncc(-c2ccc(C#Cc3ccc(-c4cnc([C@@H]5CC(F)(F)CN5C(=O)[C@@H](NC(=O)OC)C5CCOCC5)[nH]4)cc3)cc2)[nH]1)C1CCOCC1` [Example N2, dimethyl (ethyne-1,2-diylbis(4,1-phenylene-1H-imidazole-5,2-diyl((2S)-4,4-difluoropyrrolidine-2,1-diyl)((1S)-2-oxo-1-(tetrahydro-2H-pyran-4-yl)ethane-2,1-diyl)))biscarbamate]: the EC50 was 0.002 to 0.099 nM.
On the same count and under the same terms, to `CNC(=O)N[C@@H](C(=O)N1CCC[C@H]1c1nc(-c2ccc(COCc3ccc(-c4cnc([C@@H]5CCCN5C(=O)[C@H](NC(=O)NC)c5ccccc5)[nH]4)cc3)cc2)c[nH]1)c1ccccc1` [OL-17, 1-methyl-3-((1R)-2-((2S)-2-(4-(4-(((4-(2-((2S)-1-((2R)-2-((methylcarbamoyl)amino)-2-phenylacetyl)-2-pyrrolidinyl)-1H-imidazol-5-yl)benzyl)oxy)methyl)phenyl)-1H-imidazol-2-yl)-1-pyrrolidinyl)-2-oxo-1-phenylethyl)urea] belongs 0.002 to 0.099 nM; to `COC(=O)N[C@H](C(=O)N1[C@@H]2C[C@@H]2C[C@H]1c1nc2ccc3cc(C#Cc4ccc5c(ccc6nc([C@@H]7C[C@H]8C[C@H]8N7C(=O)[C@@H](NC(=O)OC)C7CCOCC7)[nH]c65)c4)ccc3c2[nH]1)C(C)C` [Example D-11, methyl ((1S)-2-((1R,3S,5R)-3-(7-((2-((1R,3S,5R)-2-((2S)-2-((methoxycarbonyl)amino)-3-methylbutanoyl)-2-azabicyclo[3.1.0]hex-3-yl)-1H-naphtho[1,2-d]imidazol-7-yl)ethynyl)-1H-naphtho[1,2-d]imidazol-2-yl)-2-azabicyclo[3.1.0]hex-2-yl)-2-oxo-1-(tetrahydro-2H-pyran-4-yl)ethyl)carbamate], 0.002 to 0.099 nM; to `COC(=O)N[C@H](C(=O)N1[C@@H]2C[C@@H]2C[C@H]1c1nc(-c2ccc([C@@H]3C[C@H]3c3ccc(-c4c[nH]c([C@@H]5C[C@H]6C[C@H]6N5C(=O)[C@@H](NC(=O)OC)C5CCOCC5)n4)cc3)cc2)c[nH]1)C1CCOCC1` [Example M9.6, dimethyl ((1R,2R)-1,2-cyclopropanediylbis(4,1-phenylene-1H-imidazole-4,2-diyl(1R,3S,5R)-2-azabicyclo[3.1.0]hexane-3,2-diyl((1S)-2-oxo-1-(tetrahydro-2H-pyran-4-yl)-2,1-ethanediyl)))biscarbamate], 0.002 to 0.099 nM.
Regarding `COC(=O)N[C@H](C(=O)N1[C@@H]2C[C@@H]2C[C@H]1c1nc2ccc3cc(C#Cc4ccc5c(ccc6nc([C@@H]7C[C@H]8C[C@H]8N7C(=O)[C@@H](NC(=O)OC)C(C)C)[nH]c65)c4)ccc3c2[nH]1)C(C)C` [Example D-10, methyl ((1S)-1-(((1R,3S,5R)-3-(7-((2-((3S)-2-((2S)-2-((methoxycarbonyl)amino)-3-methylbutanoyl)-2-azabicyclo[3.1.0]hex-3-yl)-1H-naphtho[1,2-d]imidazol-7-yl)ethynyl)-1H-naphtho[1,2-d]imidazol-2-yl)-2-azabicyclo[3.1.0]hex-2-yl)carbonyl)-2-methylpropyl)carbamate], the EC50 lay in the range of 0.002 to 0.099 nM.
On the same count and under the same terms, to `COC(=O)N[C@H](C(=O)N1[C@@H]2C[C@@H]2C[C@H]1c1nc(-c2ccc(C#Cc3ccc(-c4[nH]c([C@@H]5C[C@H]6C[C@H]6N5C(=O)[C@@H](NC(=O)OC)C5CCOCC5)nc4Cl)cc3)cc2)c[nH]1)C1CCOCC1` [Example M9.1, methyl ((1S)-2-((1R,3S,5R)-3-(4-(4-((4-(4-chloro-2-((1R,3S,5R)-2-((2S)-2-((methoxycarbonyl)amino)-2-(tetrahydro-2H-pyran-4-yl)acetyl)-2-azabicyclo[3.1.0]hex-3-yl)-1H-imidazol-5-yl)phenyl)ethynyl)phenyl)-1H-imidazol-2-yl)-2-azabicyclo[3.1.0]hex-2-yl)-2-oxo-1-(tetrahydro-2H-pyran-4-yl)ethyl)carbamate] belongs 0.002 to 0.099 nM; to `COC(=O)N[C@H](C(=O)N1[C@@H]2C[C@@H]2C[C@H]1c1nc(-c2ccc(C#Cc3ccc(-c4c[nH]c([C@@H]5C[C@H]6C[C@H]6N5C(=O)[C@@H](NC(=O)OC)C5CCOCC5)n4)cc3)cc2)c[nH]1)C(C)C` [Example M7, methyl ((1S)-1-(((1R,3S,5R)-3-(4-(4-((4-(2-((1R,3S,5R)-2-((2S)-2-((methoxycarbonyl)amino)-2-(tetrahydro-2H-pyran-4-yl)acetyl)-2-azabicyclo[3.1.0]hex-3-yl)-1H-imidazol-4-yl)phenyl)ethynyl)phenyl)-1H-imidazol-2-yl)-2-azabicyclo[3.1.0]hex-2-yl)carbonyl)-2-methylpropyl)carbamate], 0.002 to 0.099 nM; to `COC(=O)N[C@H](C(=O)N1C[C@@H](C)C[C@H]1c1ncc(-c2ccc(C#Cc3ccc(-c4cnc([C@@H]5C[C@H](C)CN5C(=O)[C@@H](NC(=O)OC)C5CCOCC5)[nH]4)cc3)cc2)[nH]1)C1CCOCC1` [Example M12.3, dimethyl (1,2-ethynediylbis(4,1-phenylene-1H-imidazole-4,2-diyl((2S,4S)-4-methyl-2,1-pyrrolidinediyl)((1S)-2-oxo-1-(tetrahydro-2H-pyran-4-yl)-2,1-ethanediyl)))biscarbamate], 0.002 to 0.099 nM.
On to `COC(=O)N[C@H](C(=O)N1C[C@@H](C)C[C@H]1c1ncc(-c2ccc([C@H]3C[C@@H]3c3ccc(-c4cnc([C@@H]5C[C@H](C)CN5C(=O)[C@@H](NC(=O)OC)C5CCOCC5)[nH]4)cc3)cc2)[nH]1)C1CCOCC1` [Example M9.8, dimethyl ((1S,2S)-1,2-cyclopropanediylbis(4,1-phenylene-1H-imidazole-4,2-diyl((2S,4S)-4-methyl-2,1-pyrrolidinediyl)((1S)-2-oxo-1-(tetrahydro-2H-pyran-4-yl)-2,1-ethanediyl)))biscarbamate], for which the EC50 fell in the range of 0.002 to 0.099 nM.
For the compound `CCNC(=O)N[C@@H](C(=O)N1CCC[C@H]1c1nc(-c2ccc(COCc3ccc(-c4cnc([C@@H]5CCCN5C(=O)[C@H](NC(=O)NCC)c5ccccc5)[nH]4)cc3)cc2)c[nH]1)c1ccccc1` [OL-18, 1-ethyl-3-((1R)-2-((2S)-2-(4-(4-(((4-(2-((2S)-1-((2R)-2-((ethylcarbamoyl)amino)-2-phenylacetyl)-2-pyrrolidinyl)-1H-imidazol-5-yl)benzyl)oxy)methyl)phenyl)-1H-imidazol-2-yl)-1-pyrrolidinyl)-2-oxo-1-phenylethyl)urea], the EC50 fell in the range of 0.002 to 0.099 nM.
On to `COC(=O)N[C@H](C(=O)N1CCC[C@H]1c1nc(-c2ccc(C#Cc3ccc(-c4c[nH]c([C@@H]5CCCN5C(=O)[C@@H](NC(=O)OC)C5CCOCC5)n4)cc3)cc2)c[nH]1)C1CCOCC1` [Example M2.1, dimethyl (1,2-ethynediylbis(4,1-phenylene-1H-imidazole-4,2-diyl(2S)-2,1-pyrrolidinediyl((1S)-2-oxo-1-(tetrahydro-2H-pyran-4-yl)-2,1-ethanediyl)))biscarbamate], for which the EC50 was 0.002 to 0.099 nM.
In the case of `CN(C)[C@@H](C(=O)N1CCC[C@H]1c1ncc(-c2ccc(Oc3cccc(-c4cnc([C@@H]5CCCN5C(=O)[C@@H](c5ccccc5)N(C)C)[nH]4)c3)cc2)[nH]1)c1ccccc1` [OL-4, (1R)-2-((2S)-2-(4-(3-(4-(2-((2S)-1-((2R)-2-(dimethylamino)-2-phenylacetyl)-2-pyrrolidinyl)-1H-imidazol-4-yl)phenoxy)phenyl)-1H-imidazol-2-yl)-1-pyrrolidinyl)-N,N-dimethyl-2-oxo-1-phenylethanamine], the EC50 lay in the range of 0.002 to 0.099 nM.
For `COC(=O)N[C@H](C(=O)N1[C@@H]2C[C@@H]2C[C@H]1c1ncc(-c2ccc([C@H]3C[C@@H]3c3ccc(-c4cnc([C@@H]5C[C@H]6C[C@H]6N5C(=O)[C@@H](NC(=O)OC)C(C)C)[nH]4)cc3)cc2)[nH]1)C(C)C` [Example M9.3], the EC50 was 0.002 to 0.099 nM.

For the next assay, the system named is HCV.
Test: not given
The following applies: literature references; cited from earlier work.
As for cyclosporin A, the “activity against HCV in clinical trials” value is “active against HCV”.
